What was measured:
[1] = test system: several classes of insects (Lepidoptera, Coleoptera, Homoptera); experiment: insecticidal action of Nimbin; type: in vivo; settings: diamondback moth, imported cabbage worm, cabbage looper, tobacco budworm, Colorado potato beetle, green apple aphid, green peach aphid, potato leafhopper
[2] = test study of pure Nimbin in humans: analgesic effects; type: in vivo; settings: pure Nimbin consumed orally (10 mg/day)
Description: (§1) For example, pure Nimbin has been consumed orally (10 mg/day) in a test study to observe therapeutic/pharmacological effects of the compound various systems/maladies in humans.

benign tumors = experiment: systemic administration of Nimbin: benign tumors; type: in vivo, humans
Description: as §1

skin = experiment: topical administration of Nimbin: tone of the skin; type: in vivo, humans

COC(=O)C[C@H]1[C@]2(C)C3=C(C)[C@H](c4ccoc4)C[C@H]3O[C@@H]2[C@H](OC(C)=O)[C@@H]2[C@]1(C)C(=O)C=C[C@@]2(C)C(=O)OC [Nimbin]
insecticidal action [1]: broad spectrum insecticidal action
analgesic effects [2]: analgesic effects
action on benign tumors (benign tumors): regressive actions on benign tumors
effect on tone of the skin (skin): modulates the tone of the skin

Reference: patent US6545167B1, “Simple and effective manufacturing process for large scale recovery of Nimbin, a Neem seed constituent” (Fortune Bio-Tech Limited, priority 2002, dated 2003)
